Entries after “also recorded” stand apart in the source; their conditions may differ.
Tests used:
[1] = test system: HCT116-oxaliplatin resistant and A2780-cisplatin resistant cells; experiment: 2D monolayer cytotoxicity in platinum-resistant cells; type: cell-based; conditions: compared with HO-3867, atovaquone, curcumin and stattic
Method: MIT assay. Individual drug treatments and combinations were carried out as with the SRB assay. The MTT assay was carried out as previously (see Cytotoxicity studies sections) with the difference that it was completed in 96 h.

DU145 cells [2] = experiment: SRB growth inhibition assay for radiosensitization; type: cell-based; conditions: 18 h pretreatment, then irradiation
Method: Stock cultures were trypsinised and 2500 cells were seeded into each well of 96-well, flat-bottomed microtiter plates, in a volume of 200 μl and left to adhere overnight at 37° C. The desired concentrations of IE-8 or curcumin were prepared in culture medium immediately before use. Medium in wells was removed and 200 μl of drug medium mixture was added. Three replicates were used for each drug concentration. One solvent control lane was included in each experiment. Plates were incubated for 18 h at 37° C. At the end of the drug treatment, the media was replaced with 200 μl of fresh media. Subsequently the plates were irradiated at 0, 2, 4 and 6 Gy. The plates were incubated for three days in a humidified incubator at 37° C. with 5% CO2. The media in the wells was removed and 100 μl of ice-cold 10% (wt/vol) trichloroethanoic acid (TCA) was added per well, to fix the cells. […] Plates were left at room temperature for 20 minutes, and the optical density (OD) at 540 nm was determined using a microplate reader (Thermo). Growth inhibition was expressed as the fraction of control A540 (surviving fraction) and calculated from the following equation; fraction of control A540=OD of untreated control at each radiation dose. The mean surviving fraction for each drug concentration for each radiation dose was calculated.

DU145 cells [3] = experiment: Annexin V/PI apoptosis assay; type: cell-based; conditions: DU145, 24 h, increasing concentrations
Method: Cells were seeded in 24-well plates at densities of 10×10^4 cells/well (A2780-cisplatin resistant) and 1.6×10^4 cells/well (DU145) and allowed to grow at 37° C. overnight prior to treatment. […] At the end of the drug incubations, the supernatant along with the trypsinised cells were collected in falcon tubes and spun for 3 min at 300 g. Cell pellets were resuspended in PBS and transferred to fresh Eppendorf tubes. After a final round of centrifugation, cell pellets were gently resuspended in 150 μl of a Annexin V-FITC labelled solution in binding buffer (2 μl per 150 μl buffer; Binding buffer: 10 mM Hepes/NaOH, pH 7.4, 140 mM NaCl and 2.5 mM CaCl2) and incubated in the dark at 37° C. for 15 min. Cells were subsequently stained with 150 μl of a 200 mg/mL PI-solution and samples were immediately processed with the flow cytometer. […] The data were analysed and presented using the FlowJo software.
Annexin V/Propidium iodide Apoptosis/Cell death was assessed by flow cytometry using the FITC-conjugated annexin V protein (Affymetrix, eBioscience) and propidium iodide double staining. […] Cells were subsequently counterstained with the addition of PI (200 μg/ml) and analysed on a Millipore Guava easyCyte™ 8HT flow cytometer using the InCyte software. The derived data were analysed as dot plots and quantified using the FlowJo software (TreeStar).

pStat3 = experiment: Immunohistochemistry of pStat3 in xenograft tissue sections; type: in vivo, mice; conditions: A549, A431, DU145 and HCT116-oxaliplatin resistant xenografts, single dose 30 mg/kg, 24 h
Method: Mice were treated as described in the survival experiments but were sacrificed 24 h post administration of the compound or vehicle, intraperitoneally.

[4] = test system: HCT116-oxaliplatin resistant xenografts; experiment: In vivo survival experiment; design: species or system mice
Method: Six- to eight-week old female Balb/c mice (weighing about 20 g) were purchased from the Harlan Laboratories, San Pietro al Natisone, Italy. The animals were kept in a pathogen-free environment, and every procedure was done in a laminar airflow cabinet. HCT16-oxaliplatin resistant cells (5×10^5) were injected subcutaneously into the right flank of female Balb/c mice. The animals were treated with IE-8 intraperitoneally (30 mg kg-1; solutions freshly prepared in the standard mixture of 1% DMSO, Cremophor, Ethanol and H2O) on days 10, 13 and 17. The animals were controlled for distress development every day. […] Control and treatment group n=4.

Compound	cytotoxicity relative to other Stat3 inhibitors [1]	radiosensitization (cell survival, SRB) (DU145 cells [2])	apoptotic cells (Annexin V/PI) (DU145 cells [3])	pStat3 levels in xenograft tissue sections (pStat3)	body weight loss ([4]; 30 mg/kg intraperitoneally on days 10, 13 and 17)	prolongation of survival versus vehicle ([4]; 30 mg/kg intraperitoneally on days 10, 13 and 17, n=4)
3,5-Di(3,4,5-trimethoxybenzylidene)-1-phenylpiperidin-4-one [IE-8]	more cytotoxic than the other tested inhibitors	–	–	–	–	–
COc1cc(/C=C2\CN(c3ccccc3)C/C(=C\c3cc(OC)c(OC)c(OC)c3)C2=O)cc(OC)c1OC [IE-8, 3,5-Di(3,4,5-trimethoxybenzylidene)-1-phenylpiperidin-4-one]	–	more efficient at reducing cell survival	dose-dependent increase in apoptotic cells	marked and in many instances significant downregulation; also recorded: downregulation of the pStat3 levels in vivo, was achieved	No body weight loss was observed	about 20 days

Source: patent publication US11964943B2, “3,5-diarylidenyl-n-substituted-piperid-4-one-derived inhibitors of Stat3 pathway activity and uses thereof” (priority 2017, dated 2024)
